The values that follow come from patent US10160748B2 (AbbVie Inc., priority 2015, dated 2018).

In the test the target is TNFα trimer (Homo sapiens, UniProt P01375). Nature of the test: TNFα FP Competitive Binding Assay. To be noted: FP binding assay; 20 nM TNFα trimer, 1 nM OregonGreen488 probe; read-out: TNF IC50. Put shortly:
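Fluorescence polarization competition: 20 nM TNFα trimer with 1 nM fluorescein-labelled probe in HEPES/NaCl/EDTA/Triton X-100 buffer, compound in 12-point 1:3 dilutions (final top 338 μM or 100 μM). Incubated 18-24 h, background-subtracted mP read, variable-slope dose-response fitting.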

Structures are written as SMILES. A value given as a limit tells only on which side of the number the result lay.

TNFα trimer, sequence (P01375 77-233 limits assumed): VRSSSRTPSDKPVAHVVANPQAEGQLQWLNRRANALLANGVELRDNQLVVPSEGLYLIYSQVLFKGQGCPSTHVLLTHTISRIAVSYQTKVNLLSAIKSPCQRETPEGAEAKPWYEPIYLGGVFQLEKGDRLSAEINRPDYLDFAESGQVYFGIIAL

Broadly, the IC50 is the concentration needed to halve the response being measured. Take `Cn1c(=O)c2ccc(-c3cnc(N4CCN5C(=O)NC[C@H]5C4)nc3)cc2n1Cc1cc(Cn2cnnc2)ccc1OC(F)F` [Example 93, (S)-7-(5-(1-(5-((4H-1,2,4-triazol-4-yl)methyl)-2-(difluoromethoxy)benzyl)-2-methyl-3-oxo-2,3-dihydro-1H-indazol-6-yl)pyrimidin-2-yl)hexahydroimidazo[1,5-a]pyrazin-3(2H)-one]: the IC50 was < 1000 nM. With `Cc1ccc(OC(F)F)c(Cn2c3cc(-c4cnn5c([C@@H](C)O)cnc5c4)ccc3c(=O)n2C)c1` (single isomer, unassigned) [Example 107], the IC50 was < 1000 nM. Turning to `Cn1c(=O)c2ccc(-c3cnc(N4CC[C@@H](C(=O)O)C4)nc3)cc2n1Cc1ccccc1OC(F)F` [Example 2.6], the IC50 was > 10000 nM. Consider `Cn1c(=O)c2ccc(-c3cnc(C(C)(C)O)nc3)cc2n1Cc1cc(NCc2ccccn2)ccc1Cl` [Example 42, 1-(2-Chloro-5-((pyridin-2-ylmethyl)amino)benzyl)-6-(2-(2-hydroxypropan-2-yl)pyrimidin-5-yl)-2-methyl-1H-indazol-3(2H)-one], for which the IC50 lay within 1000 to 10000 nM. On to `Cn1c(=O)c2ccc(-c3cnc(N4CCC(C(=O)O)CC4)nc3)cc2n1Cc1cc(Cl)ccc1Cl` [Example 7.2], for which the IC50 lay within 1000 to 10000 nM. Regarding `Cc1cc2c(=O)n(C)n(Cc3ccccc3OC(F)F)c2cc1-c1cnc(N2CCC(C(=O)O)CC2)nc1` [Example 13.3], the IC50 lay within 1000 to 10000 nM. `Cc1ccc(OC(F)F)c(Cn2c3cc(-c4cnc(N5CCN(C(=O)CO)[C@@H](C)C5)nc4)ccc3c(=O)n2C)c1` [Example 36, (S)-1-(2-(Difluoromethoxy)-5-methylbenzyl)-6-(2-(4-(2-hydroxyacetyl)-3-methylpiperazin-1-yl)pyrimidin-5-yl)-2-methyl-1H-indazol-3(2H)-one]: the IC50 was < 1000 nM. With `CCn1c(=O)c2ccc(-c3cnc(N4CCOCC4)nc3)cc2n1Cc1ccccc1OC(F)F` [Example 10, 1-(2-(Difluoromethoxy)benzyl)-2-ethyl-6-(2-morpholinopyrimidin-5-yl)-1H-indazol-3(2H)-one], the half-inhibitory concentration (IC50) fell in the range of 1000 to 10000 nM. Under `Cn1c(=O)c2ccc(-c3ccnc(OC4CCOCC4)c3)cc2n1Cc1ccccc1OC(F)F` [Example 10.11] stands < 1000 nM. Turning to `Cn1c(=O)c2ccc(-c3cnc(CC4(C)COC4)nc3)cc2n1Cc1ccccc1OC(F)F` [Example 12, 1-(2-(Difluoromethoxy)benzyl)-2-methyl-6-(2-((3-methyloxetan-3-yl)methyl)pyrimidin-5-yl)-1H-indazol-3(2H)-one], the IC50 is 1000 to 10000 nM. As to `Cn1c(=O)c2ccc(-c3cnc(N4CCN5C(=O)NC[C@@H]5C4)nc3)cc2n1Cc1ccccc1OC(F)F` (single isomer, unassigned) [Example 6], the IC50 is < 1000 nM.

As for `Cc1ccc(OC(F)F)c(Cn2c3cc(-c4cnc(C(C)(C)O)nc4C)c(F)cc3c(=O)n2C)c1` [Example 17.2], the IC50 is < 1000 nM. With `CC(=O)N1CCN(c2ncc(-c3ccc4c(=O)n(Cc5ccncc5)n(Cc5ccccc5Cl)c4c3)cn2)C[C@H]1C` [Example 27.7], the IC50 is 1000 to 10000 nM. Turning to `Cn1c(=O)c2ccc(-c3cnc(NC4CCNC4=O)nc3)cc2n1Cc1cc(CO)ccc1OC(F)F` (centres unmarked) [Example 16.6], the IC50 fell in the range of 1000 to 10000 nM.

In the case of `CC(=O)N1CCN(c2ncc(-c3ccc4c(=O)n(C)n(Cc5c(CC#N)cccc5OC(F)F)c4c3)cn2)C[C@H]1C` [Example 49, (R)-2-(2-((6-(2-(4-Acetyl-3-methylpiperazin-1-yl)pyrimidin-5-yl)-2-methyl-3-oxo-2,3-dihydro-1H-indazol-1-yl)methyl)-3-(difluoromethoxy)phenyl)acetonitrile], the IC50 was < 1000 nM.

`Cn1c(=O)c2ccc(-c3cnn(C4CCOCC4)c3)cc2n1Cc1ccccc1OC(F)F` [Example 5.7]: the IC50 is > 10000 nM. As to `COc1cc2c(=O)n(C)n(Cc3ccccc3OC(F)F)c2cc1-c1cnc(N2CCN(C(=O)CO)[C@H](C)C2)nc1` [Example 47, (R)-1-(2-(Difluoromethoxy)benzyl)-6-(2-(4-(2-hydroxyacetyl)-3-methylpiperazin-1-yl)pyrimidin-5-yl)-5-methoxy-2-methyl-1H-indazol-3(2H)-one], the IC50 was in the range of 1000 to 10000 nM.

As to `Cc1ccc(OC(F)F)c(Cn2c3cc(-c4cnc(N5CCC[C@H]5CO)nc4)ccc3c(=O)n2C)c1` [Example 22.7], the IC50 fell in the range of 1000 to 10000 nM. Consider `CN(C)C(=O)OCc1ccc(OC(F)F)c(Cn2c3cc(-c4cnc(N5CCN6C(=O)NC[C@@H]6C5)nc4)ccc3c(=O)n2C)c1` [Example 67, (R)-4-(Difluoromethoxy)-3-((2-methyl-3-oxo-6-(2-(3-oxohexahydroimidazo[1,5-a]pyrazin-7(1H)-yl)pyrimidin-5-yl)-2,3-dihydro-1H-indazol-1-yl)methyl)benzyldimethylcarbamate], for which the IC50 was < 1000 nM.

With `CC(=O)N1CC(Cc2ccc(OC(F)F)c(Cn3c4cc(-c5cnc(C(C)(C)O)nc5)c(F)cc4c(=O)n3C)c2)C1` [Example 26.6], the half-maximal inhibitory concentration (IC50) is 1000 to 10000 nM. `Cc1ccc(OC(F)F)c(Cn2c3cc(-c4cnc(N5CCN6C(=O)NC[C@H]6C5)nc4)ccc3c(=O)n2C)n1` [Example 29.6]: the IC50 was in the range of 1000 to 10000 nM. For `Cc1cccc(C(C)n2c3cc(-c4cnc(N5CCN(C(=O)CO)[C@H](C)C5)nc4)ccc3c(=O)n2C)c1` (stereo partly drawn) [Example 116, 6-(2-((R)-4-(2-hydroxyacetyl)-3-methylpiperazin-1-yl)pyrimidin-5-yl)-2-methyl-1-(1-(m-tolyl)ethyl)-1H-indazol-3(2H)-one], the concentration for half-maximal inhibition (IC50) was < 1000 nM. Then `Cc1ccc(OC(F)F)c(Cn2c3cc(-c4cnc(N5CCN(C(=O)C6COC6)[C@H](C)C5)nc4)ccc3c(=O)n2C)c1` [Example 21.2], with < 1000 nM; and `COC[C@H]1CCCN1c1ncc(-c2ccc3c(=O)n(C)n(Cc4ccccc4OC(F)F)c3c2)cn1` [Example 2.2], with < 1000 nM; and `Cc1ccc(OC(F)F)c(Cn2c3cc(-c4ccnc(OC5CCOCC5)c4)ccc3c(=O)n2C)c1` [Example 22.13], with < 1000 nM. Turning to `C[C@@H]1CN(C(=O)CO)CCN1c1ncc(-c2ccc3c(=O)n(C)n(Cc4ccccc4OC(F)F)c3c2F)cn1` [Example 121, (R)-1-(2-(Difluoromethoxy)benzyl)-7-fluoro-6-(2-(4-(2-hydroxyacetyl)-2-methylpiperazin-1-yl)pyrimidin-5-yl)-2-methyl-1H-indazol-3(2H)-one], the IC50 is < 1000 nM. As for `Cn1c(=O)c2ccc(-c3cnc(N4CCN5C(=O)OC[C@@H]5C4)nc3)cc2n1Cc1ccccc1OC(F)F` [Example 2.26], the IC50 was < 1000 nM.

Regarding `Cn1c(=O)c2ccc(-c3cnc(N4CC(C5COC5)C4)nc3)cc2n1Cc1ccccc1OC(F)F` [Example 2.8], the IC50 was in the range of 1000 to 10000 nM. Consider `Cc1ccc(OC(F)F)c(Cn2c3nc(-c4cnc(C(C)(C)O)nc4C)ccc3c(=O)n2C)c1` [Example 95, 1-(2-(Difluoromethoxy)-5-methylbenzyl)-6-(2-(2-hydroxypropan-2-yl)-4-methylpyrimidin-5-yl)-2-methyl-1,2-dihydro-3H-pyrazolo[3,4-b]pyridin-3-one], for which the IC50 lay within 1000 to 10000 nM. Then `CN1C[C@H]2CN(c3ncc(-c4ccc5c(=O)n(C)n(Cc6ccccc6OC(F)F)c5c4)cn3)CCN2C1=O` [Example 34, (R)-7-(5-(1-(2-(Difluoromethoxy)benzyl)-2-methyl-3-oxo-2,3-dihydro-1H-indazol-6-yl)pyrimidin-2-yl)-2-methylhexahydroimidazo[1,5-a]pyrazin-3(2H)-one], with < 1000 nM; and `Cn1c(=O)c2ccc(-c3cnc(C(C)(C)O)nc3)cc2n1Cc1cn(Cc2cccnc2)cc1C(F)(F)F` [Example #127], with < 1000 nM. As to `Cn1c(=O)c2ccc(-c3cnc(NCC4CNC(=O)C4)nc3)cc2n1Cc1ccccc1OC(F)F` (centres unmarked) [Example 2.7], the concentration for half-maximal inhibition (IC50) was 1000 to 10000 nM. As for `Cn1c(=O)c2ccc(-c3cnc(C(C)(C)O)nc3)cc2n1Cc1cc([C@@H]2CCC[C@@H]2C#N)ccc1OC(F)F` (relative stereo) [Example 112, 2-(4-(Difluoromethoxy)-3-((6-(2-(2-hydroxypropan-2-yl)pyrimidin-5-yl)-2-methyl-3-oxo-2,3-dihydro-1H-indazol-1-yl)methyl)phenyl)cyclopentanecarbonitrile], the half-maximal inhibitory concentration (IC50) was 1000 to 10000 nM. Under `CCC(c1cccc(C)c1)n1c2cc(-c3cnc(N4CCN(C(=O)CO)[C@H](C)C4)nc3)ccc2c(=O)n1C` (some centres unmarked) [Example 24.3] stands < 1000 nM; under `Cn1c(=O)c2ccc(-c3cnc(NC4CCNC(=O)C4)nc3)cc2n1Cc1cc(CO)ccc1OC(F)F` (centres unmarked) [Example 16.5], < 1000 nM. For the molecule `Cn1c(=O)c2cc(F)c(-c3cnc(C(C)(C)O)nc3)cc2n1Cc1cc(Cn2cnnc2)ccc1OC(F)F` [Example 26.5], the IC50 fell in the range of 1000 to 10000 nM. `C[C@@H]1CN(C(=O)CO)CCN1c1ncc(-c2c(F)cc3c(=O)n(C)n(Cc4ccccc4OC(F)F)c3c2F)cn1` [Example 30]: the IC50 was < 1000 nM. As to `CC(=O)N1CCN(c2ncc(-c3ccc4c(=O)n(C)n(Cc5cc(C)ccc5OC(F)F)c4n3)cn2)C[C@H]1C` [Example 18.2], the IC50 is < 1000 nM.

As for `Cc1ccc(C#N)c(Cn2c3cc(-c4cnc(N5CCN6C(=O)NC[C@H]6C5)nc4)ccc3c(=O)n2C)c1` [Example 37, (S)-4-Methyl-2-((2-methyl-3-oxo-6-(2-(3-oxohexahydroimidazo[1,5-a]pyrazin-7(1H)-yl)pyrimidin-5-yl)-2,3-dihydro-1H-indazol-1-yl)methyl)benzonitrile], the IC50 lay in the range of 1000 to 10000 nM. On to `Cn1cc(Cn2c3cc(-c4cnc(N5CCN6C(=O)NC[C@H]6C5)nc4)ccc3c(=O)n2C)c(C(F)(F)F)c1` [Example 123, (S)-7-(5-(2-Methyl-1-((1-methyl-4-(trifluoromethyl)-1H-pyrrol-3-yl)methyl)-3-oxo-2,3-dihydro-1H-indazol-6-yl)pyrimidin-2-yl)hexahydroimidazo[1,5-a]pyrazin-3(2H)-one], for which the IC50 was < 1000 nM. For `Cc1ccc(C(F)(F)F)c(Cn2c3cc(-c4cnc(N5CCN(C(=O)CO)[C@H](C)C5)nc4)ccc3c(=O)n2C)n1` [Example 19.3], the half-inhibitory concentration (IC50) is < 1000 nM.
